Assay results as given in the kinase profiling compilation of Christmann-Franck et al. (2016).

Key:
Experiment in all cases: radiometric filter-binding kinase assay
MAPKAPK2 (human) = MAPKAPK2 (human) (UniProt P49137)
PLK1 (human) = PLK1 (human) (UniProt P53350)
RPS6KA5 KD1 KD2 (human) = RPS6KA5 KD1 KD2 (human) (UniProt O75582)
PRKCZ (human) = PRKCZ (human) (UniProt Q05513)
MAP2K2 (human) = MAP2K2 (human) (UniProt P36507)
MAPK10 (human) = MAPK10 (human) (UniProt P53779)
MAP3K7 TAB1 (human) = MAP3K7 TAB1 (human) (UniProt Q15750+O43318)
IKBKB (human) = IKBKB (human) (UniProt O14920)
Chain of IKBKB (human) (O14920 whole entry, looked up): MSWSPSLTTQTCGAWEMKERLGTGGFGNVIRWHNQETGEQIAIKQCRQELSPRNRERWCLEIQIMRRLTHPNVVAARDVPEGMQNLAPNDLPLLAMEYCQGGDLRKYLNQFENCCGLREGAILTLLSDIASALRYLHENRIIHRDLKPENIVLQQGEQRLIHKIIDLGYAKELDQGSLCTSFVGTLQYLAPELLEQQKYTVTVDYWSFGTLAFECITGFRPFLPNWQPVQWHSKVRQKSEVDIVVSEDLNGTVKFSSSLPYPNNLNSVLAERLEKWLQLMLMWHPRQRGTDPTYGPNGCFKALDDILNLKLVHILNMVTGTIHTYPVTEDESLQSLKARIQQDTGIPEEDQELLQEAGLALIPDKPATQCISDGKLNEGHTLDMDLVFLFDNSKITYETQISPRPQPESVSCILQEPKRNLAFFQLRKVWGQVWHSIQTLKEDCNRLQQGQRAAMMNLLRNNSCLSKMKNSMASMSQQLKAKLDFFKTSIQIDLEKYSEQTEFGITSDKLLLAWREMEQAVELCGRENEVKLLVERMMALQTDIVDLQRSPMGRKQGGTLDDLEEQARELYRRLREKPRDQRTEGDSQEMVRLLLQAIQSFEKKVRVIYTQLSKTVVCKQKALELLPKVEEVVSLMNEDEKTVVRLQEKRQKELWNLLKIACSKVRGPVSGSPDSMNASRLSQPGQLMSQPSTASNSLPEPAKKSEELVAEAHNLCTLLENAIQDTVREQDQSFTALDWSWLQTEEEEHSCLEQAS

IGF1R (human) = IGF1R (human) (UniProt P08069)
CaMK1 (human) = CaMK1 (human) (UniProt Q14012)
Chain of CaMK1 (human) (Q14012 whole entry, looked up): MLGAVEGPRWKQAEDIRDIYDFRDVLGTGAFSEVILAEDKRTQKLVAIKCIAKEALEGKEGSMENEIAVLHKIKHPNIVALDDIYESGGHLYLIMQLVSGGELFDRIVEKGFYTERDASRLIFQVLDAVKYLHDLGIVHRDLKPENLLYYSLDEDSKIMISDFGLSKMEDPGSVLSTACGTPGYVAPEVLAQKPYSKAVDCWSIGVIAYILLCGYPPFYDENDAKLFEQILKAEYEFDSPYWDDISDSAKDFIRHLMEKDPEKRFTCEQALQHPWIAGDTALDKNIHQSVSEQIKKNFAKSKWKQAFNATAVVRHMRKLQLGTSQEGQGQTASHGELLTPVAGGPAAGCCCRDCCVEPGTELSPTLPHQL

EPHB4 (human) = EPHB4 (human) (UniProt P54760)
MKNK2 (human) = MKNK2 (human) (UniProt Q9HBH9)
MELK (human) = MELK (human) (UniProt Q14680)
MINK1 (human) = MINK1 (human) (UniProt Q8N4C8)
AURKB (human) = AURKB (human) (UniProt Q96GD4)
BRSK1 (human) = BRSK1 (human) (UniProt Q8TDC3)
ROCK2 (rat) = details: accession and sequence are those of the human protein
EPHB3 (human) = EPHB3 (human) (UniProt P54753)
MAP3K11 (human) = MAP3K11 (human) (UniProt Q16584)
[1] = test system: AKT2 (human), P31751 [S474D]
MAPK14 (human) = MAPK14 (human) (UniProt Q16539)
PKN2 (human) = PKN2 (human) (UniProt Q16513)
Chain of PKN2 (human) (Q16513 whole entry, looked up): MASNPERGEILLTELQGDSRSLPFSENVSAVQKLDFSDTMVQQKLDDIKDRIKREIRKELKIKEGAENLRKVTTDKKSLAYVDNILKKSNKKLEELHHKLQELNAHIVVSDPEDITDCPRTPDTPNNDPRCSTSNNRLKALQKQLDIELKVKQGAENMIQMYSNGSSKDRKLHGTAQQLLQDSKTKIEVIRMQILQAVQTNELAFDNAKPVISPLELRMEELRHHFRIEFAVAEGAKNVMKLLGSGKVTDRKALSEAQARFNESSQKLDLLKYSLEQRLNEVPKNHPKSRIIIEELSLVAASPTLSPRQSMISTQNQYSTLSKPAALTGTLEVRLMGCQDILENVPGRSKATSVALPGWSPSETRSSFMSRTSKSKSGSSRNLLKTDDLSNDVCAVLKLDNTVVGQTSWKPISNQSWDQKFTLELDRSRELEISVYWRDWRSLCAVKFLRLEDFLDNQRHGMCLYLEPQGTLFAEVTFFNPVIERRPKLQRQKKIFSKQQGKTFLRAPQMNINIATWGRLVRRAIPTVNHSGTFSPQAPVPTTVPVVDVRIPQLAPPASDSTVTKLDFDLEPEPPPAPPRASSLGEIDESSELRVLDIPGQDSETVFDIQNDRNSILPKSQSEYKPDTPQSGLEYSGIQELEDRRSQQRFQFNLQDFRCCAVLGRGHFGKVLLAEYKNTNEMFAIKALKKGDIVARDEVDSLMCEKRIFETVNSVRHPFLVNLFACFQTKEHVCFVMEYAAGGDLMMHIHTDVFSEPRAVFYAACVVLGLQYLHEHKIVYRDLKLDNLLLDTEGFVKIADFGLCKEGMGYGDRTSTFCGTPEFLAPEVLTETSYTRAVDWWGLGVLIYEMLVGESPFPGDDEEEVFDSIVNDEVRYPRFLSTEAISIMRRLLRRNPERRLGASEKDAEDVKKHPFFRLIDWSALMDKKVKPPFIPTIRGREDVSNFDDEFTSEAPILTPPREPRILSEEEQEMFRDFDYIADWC

PAK4 (human) = PAK4 (human) (UniProt O96013)
PRKCA (human) = PRKCA (human) (UniProt P17252)
MAPKAPK5 (human) = MAPKAPK5 (human) (UniProt Q8IW41)
Chain of MAPKAPK5 (human) (Q8IW41 whole entry, looked up): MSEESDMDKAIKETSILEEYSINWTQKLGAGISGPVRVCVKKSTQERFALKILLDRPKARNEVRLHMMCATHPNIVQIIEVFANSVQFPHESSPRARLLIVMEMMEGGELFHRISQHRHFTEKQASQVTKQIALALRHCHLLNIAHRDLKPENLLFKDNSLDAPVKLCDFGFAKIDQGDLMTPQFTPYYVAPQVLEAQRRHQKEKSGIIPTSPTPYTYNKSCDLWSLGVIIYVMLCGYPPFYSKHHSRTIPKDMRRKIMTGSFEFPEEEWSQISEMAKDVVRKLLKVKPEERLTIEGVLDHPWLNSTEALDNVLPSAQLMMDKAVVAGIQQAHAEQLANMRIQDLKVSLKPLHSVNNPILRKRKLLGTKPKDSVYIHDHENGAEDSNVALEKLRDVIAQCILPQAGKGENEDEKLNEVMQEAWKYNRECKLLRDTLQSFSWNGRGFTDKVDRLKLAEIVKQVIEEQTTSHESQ

EPHA4 (human) = EPHA4 (human) (UniProt P54764)
MARK3 (human) = MARK3 (human) (UniProt P27448)
PRKACA (human) = PRKACA (human) (UniProt P17612)
[2] = test system: RPS6KB1 (human), P23443 [T412E]
BRSK2 (human) = BRSK2 (human) (UniProt Q8IWQ3)
Chain of BRSK2 (human) (Q8IWQ3 whole entry, looked up): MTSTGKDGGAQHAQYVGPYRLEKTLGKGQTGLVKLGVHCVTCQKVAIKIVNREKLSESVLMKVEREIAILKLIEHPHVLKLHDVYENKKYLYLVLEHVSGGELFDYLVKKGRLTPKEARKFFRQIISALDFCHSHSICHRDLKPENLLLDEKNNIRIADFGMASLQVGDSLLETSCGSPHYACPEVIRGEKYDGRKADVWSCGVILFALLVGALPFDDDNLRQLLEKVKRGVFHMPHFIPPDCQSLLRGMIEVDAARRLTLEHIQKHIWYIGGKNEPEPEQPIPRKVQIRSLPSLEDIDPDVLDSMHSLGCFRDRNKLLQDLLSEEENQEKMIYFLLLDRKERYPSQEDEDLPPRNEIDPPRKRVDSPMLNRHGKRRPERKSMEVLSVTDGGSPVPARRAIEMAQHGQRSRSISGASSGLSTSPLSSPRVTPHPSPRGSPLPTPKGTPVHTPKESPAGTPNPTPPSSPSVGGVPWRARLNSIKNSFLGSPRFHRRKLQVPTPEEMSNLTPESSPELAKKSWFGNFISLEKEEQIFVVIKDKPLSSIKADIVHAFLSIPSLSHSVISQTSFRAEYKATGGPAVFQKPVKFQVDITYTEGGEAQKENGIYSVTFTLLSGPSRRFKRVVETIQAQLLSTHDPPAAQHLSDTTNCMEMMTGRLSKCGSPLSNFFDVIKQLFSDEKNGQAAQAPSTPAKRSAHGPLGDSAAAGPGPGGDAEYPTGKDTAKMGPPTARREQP

CDK2 CCNA2 (human) = CDK2 CCNA2 (human) (UniProt P20248+P24941)
MAP3K9 (human) = MAP3K9 (human) (UniProt P80192)
ERBB4 (human) = ERBB4 (human) (UniProt Q15303)
MAP2K6 (human) = MAP2K6 (human) (UniProt P52564)
MST4 (human) = MST4 (human) (UniProt Q9P289)

Chain of MAP2K2 (human) (P36507 whole entry, looked up): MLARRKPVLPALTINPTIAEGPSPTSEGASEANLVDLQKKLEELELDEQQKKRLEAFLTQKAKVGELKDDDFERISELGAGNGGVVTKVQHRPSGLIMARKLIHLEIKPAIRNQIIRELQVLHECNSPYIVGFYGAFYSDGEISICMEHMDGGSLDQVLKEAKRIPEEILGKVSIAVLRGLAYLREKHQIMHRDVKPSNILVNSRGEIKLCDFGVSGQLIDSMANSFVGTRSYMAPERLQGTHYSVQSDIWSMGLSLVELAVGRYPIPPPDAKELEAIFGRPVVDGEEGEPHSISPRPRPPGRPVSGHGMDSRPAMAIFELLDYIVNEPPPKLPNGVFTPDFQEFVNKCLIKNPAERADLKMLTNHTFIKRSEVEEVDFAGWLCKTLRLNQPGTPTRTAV
Chain of MAPK10 (human) (P53779 whole entry, looked up): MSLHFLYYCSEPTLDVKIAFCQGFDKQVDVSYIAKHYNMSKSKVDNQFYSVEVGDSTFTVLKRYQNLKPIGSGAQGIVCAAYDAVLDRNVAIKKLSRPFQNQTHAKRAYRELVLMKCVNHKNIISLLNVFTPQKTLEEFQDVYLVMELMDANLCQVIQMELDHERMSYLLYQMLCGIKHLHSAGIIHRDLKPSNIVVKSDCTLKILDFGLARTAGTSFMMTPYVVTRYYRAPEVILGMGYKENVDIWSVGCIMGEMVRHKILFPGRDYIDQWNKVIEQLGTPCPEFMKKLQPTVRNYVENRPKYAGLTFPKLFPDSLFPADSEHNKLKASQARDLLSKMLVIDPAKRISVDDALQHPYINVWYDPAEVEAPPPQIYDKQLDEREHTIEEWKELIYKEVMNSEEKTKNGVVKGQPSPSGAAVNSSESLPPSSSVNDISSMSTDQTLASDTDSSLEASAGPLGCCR
Chain of RPS6KA5 KD1 KD2 (human) (O75582 whole entry, looked up): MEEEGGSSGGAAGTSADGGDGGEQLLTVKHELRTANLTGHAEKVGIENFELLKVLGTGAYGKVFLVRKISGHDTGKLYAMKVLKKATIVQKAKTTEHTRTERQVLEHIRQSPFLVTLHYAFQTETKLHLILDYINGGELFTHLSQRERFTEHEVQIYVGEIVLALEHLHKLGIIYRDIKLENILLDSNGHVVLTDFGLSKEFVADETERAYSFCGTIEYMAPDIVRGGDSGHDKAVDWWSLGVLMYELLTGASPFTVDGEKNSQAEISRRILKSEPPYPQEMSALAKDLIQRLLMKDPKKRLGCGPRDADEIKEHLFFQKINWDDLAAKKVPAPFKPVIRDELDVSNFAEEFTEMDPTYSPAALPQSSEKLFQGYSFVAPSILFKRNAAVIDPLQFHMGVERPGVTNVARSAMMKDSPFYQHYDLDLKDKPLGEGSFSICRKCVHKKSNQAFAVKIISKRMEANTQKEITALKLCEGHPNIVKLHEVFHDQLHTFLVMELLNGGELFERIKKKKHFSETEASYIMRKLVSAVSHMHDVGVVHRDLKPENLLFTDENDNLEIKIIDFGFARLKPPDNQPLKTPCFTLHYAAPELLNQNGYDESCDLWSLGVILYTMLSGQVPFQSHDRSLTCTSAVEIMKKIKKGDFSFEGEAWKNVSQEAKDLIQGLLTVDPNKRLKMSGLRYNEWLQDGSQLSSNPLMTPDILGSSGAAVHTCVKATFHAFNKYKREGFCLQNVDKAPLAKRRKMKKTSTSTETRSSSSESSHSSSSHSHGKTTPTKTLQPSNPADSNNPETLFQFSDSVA

## O=C1c2ccccc2-c2n[nH]c3cccc1c23
MAPKAPK2 (human); compound 1.0 µM
  residual activity: 95%
MAPKAPK2 (human); compound 10.0 µM
  residual activity: 77%
PLK1 (human); compound 1.0 µM
  residual activity: 113%
PLK1 (human); compound 10.0 µM
  residual activity: 110%
RPS6KA5 KD1 KD2 (human); compound 1.0 µM
  residual activity: 75%
RPS6KA5 KD1 KD2 (human); compound 10.0 µM
  residual activity: 49%
PRKCZ (human); compound 1.0 µM
  residual activity: 93%
PRKCZ (human); compound 10.0 µM
  residual activity: 89%
MAP2K2 (human); compound 1.0 µM
  residual activity: 64%
MAP2K2 (human); compound 10.0 µM
  residual activity: 21%
MAPK10 (human); compound 1.0 µM
  residual activity: 48%
MAPK10 (human); compound 10.0 µM
  residual activity: 17%
MAP3K7 TAB1 (human); compound 1.0 µM
  residual activity: 30%
MAP3K7 TAB1 (human); compound 10.0 µM
  residual activity: 8%
IKBKB (human); compound 1.0 µM
  residual activity: 75%
IKBKB (human); compound 10.0 µM
  residual activity: 38%
IGF1R (human); compound 1.0 µM
  residual activity: 55%
IGF1R (human); compound 10.0 µM
  residual activity: 11%
CaMK1 (human); compound 1.0 µM
  residual activity: 70%
CaMK1 (human); compound 10.0 µM
  residual activity: 31%
EPHB4 (human); compound 1.0 µM
  residual activity: 113%
EPHB4 (human); compound 10.0 µM
  residual activity: 78%
MKNK2 (human); compound 1.0 µM
  residual activity: 61%
MKNK2 (human); compound 10.0 µM
  residual activity: 29%
MELK (human); compound 1.0 µM
  residual activity: 77%
MELK (human); compound 10.0 µM
  residual activity: 109%
MINK1 (human); compound 1.0 µM
  residual activity: 37%
MINK1 (human); compound 10.0 µM
  residual activity: 16%
AURKB (human); compound 1.0 µM
  residual activity: 15%
AURKB (human); compound 10.0 µM
  residual activity: 13%
BRSK1 (human); compound 1.0 µM
  residual activity: 48%
BRSK1 (human); compound 10.0 µM
  residual activity: 29%
ROCK2 (rat); compound 1.0 µM
  residual activity: 75%
ROCK2 (rat); compound 10.0 µM
  residual activity: 32%
EPHB3 (human); compound 1.0 µM
  residual activity: 102%
EPHB3 (human); compound 10.0 µM
  residual activity: 49%
MAP3K11 (human); compound 1.0 µM
  residual activity: 14%
MAP3K11 (human); compound 10.0 µM
  residual activity: 4%
[1]; compound 1.0 µM
  residual activity: 104%
[1]; compound 10.0 µM
  residual activity: 98%
MAPK14 (human); compound 1.0 µM
  residual activity: 94%
MAPK14 (human); compound 10.0 µM
  residual activity: 86%
PKN2 (human); compound 1.0 µM
  residual activity: 86%
PKN2 (human); compound 10.0 µM
  residual activity: 64%
PAK4 (human); compound 1.0 µM
  residual activity: 80%
PAK4 (human); compound 10.0 µM
  residual activity: 25%
PRKCA (human); compound 1.0 µM
  residual activity: 78%
PRKCA (human); compound 10.0 µM
  residual activity: 27%
MAPKAPK5 (human); compound 1.0 µM
  residual activity: 78%
MAPKAPK5 (human); compound 10.0 µM
  residual activity: 39%
EPHA4 (human); compound 1.0 µM
  residual activity: 84%
EPHA4 (human); compound 10.0 µM
  residual activity: 66%
MARK3 (human); compound 1.0 µM
  residual activity: 41%
MARK3 (human); compound 10.0 µM
  residual activity: 14%
PRKACA (human); compound 1.0 µM
  residual activity: 88%
PRKACA (human); compound 10.0 µM
  residual activity: 88%
[2]; compound 1.0 µM
  residual activity: 75%
[2]; compound 10.0 µM
  residual activity: 30%
BRSK2 (human); compound 1.0 µM
  residual activity: 46%
BRSK2 (human); compound 10.0 µM
  residual activity: 32%
CDK2 CCNA2 (human); compound 1.0 µM
  residual activity: 50%
CDK2 CCNA2 (human); compound 10.0 µM
  residual activity: 14%
MAP3K9 (human); compound 1.0 µM
  residual activity: 11%
MAP3K9 (human); compound 10.0 µM
  residual activity: 6%
ERBB4 (human); compound 1.0 µM
  residual activity: 89%
ERBB4 (human); compound 10.0 µM
  residual activity: 74%
MAP2K6 (human); compound 1.0 µM
  residual activity: 80%
MAP2K6 (human); compound 10.0 µM
  residual activity: 27%
MST4 (human); compound 1.0 µM
  residual activity: 58%
MST4 (human); compound 10.0 µM
  residual activity: 17%

## Cc1nc(N)sc1-c1csc(Nc2cccnc2)n1
MAPKAPK2 (human); compound 10.0 µM
  residual activity: 92%
MAPKAPK2 (human); compound 100.0 µM
  residual activity: 5%
PLK1 (human); compound 10.0 µM
  residual activity: 35%
PLK1 (human); compound 100.0 µM
  residual activity: 22%
RPS6KA5 KD1 KD2 (human); compound 10.0 µM
  residual activity: 88%
PRKCZ (human); compound 10.0 µM
  residual activity: 95%
MAP2K2 (human); compound 10.0 µM
  residual activity: 87%
MAPK10 (human); compound 10.0 µM
  residual activity: 70%
MAPK10 (human); compound 100.0 µM
  residual activity: 44%
MAP3K7 TAB1 (human); compound 10.0 µM
  residual activity: 79%
IKBKB (human); compound 10.0 µM
  residual activity: 56%
IGF1R (human); compound 10.0 µM
  residual activity: 70%
CaMK1 (human); compound 10.0 µM
  residual activity: 20%
CaMK1 (human); compound 100.0 µM
  residual activity: 5%
EPHB4 (human); compound 10.0 µM
  residual activity: 97%
MKNK2 (human); compound 10.0 µM
  residual activity: 65%
MELK (human); compound 10.0 µM
  residual activity: 73%
MINK1 (human); compound 10.0 µM
  residual activity: 35%
MINK1 (human); compound 100.0 µM
  residual activity: 3%
AURKB (human); compound 10.0 µM
  residual activity: 70%
AURKB (human); compound 100.0 µM
  residual activity: 3%
BRSK1 (human); compound 10.0 µM
  residual activity: 80%
ROCK2 (rat); compound 10.0 µM
  residual activity: 80%
EPHB3 (human); compound 10.0 µM
  residual activity: 101%
MAP3K11 (human); compound 10.0 µM
  residual activity: 47%
MAP3K11 (human); compound 100.0 µM
  residual activity: 9%
[1]; compound 10.0 µM
  residual activity: 3%
[1]; compound 100.0 µM
  residual activity: 7%
MAPK14 (human); compound 10.0 µM
  residual activity: 91%
MAPK14 (human); compound 100.0 µM
  residual activity: 78%
PKN2 (human); compound 10.0 µM
  residual activity: 76%
PAK4 (human); compound 10.0 µM
  residual activity: 74%
PRKCA (human); compound 10.0 µM
  residual activity: 67%
MAPKAPK5 (human); compound 10.0 µM
  residual activity: 94%
EPHA4 (human); compound 10.0 µM
  residual activity: 106%
MARK3 (human); compound 10.0 µM
  residual activity: 84%
PRKACA (human); compound 10.0 µM
  residual activity: 91%
[2]; compound 10.0 µM
  residual activity: 64%
BRSK2 (human); compound 10.0 µM
  residual activity: 70%
CDK2 CCNA2 (human); compound 10.0 µM
  residual activity: 63%
MAP3K9 (human); compound 10.0 µM
  residual activity: 95%
MAP3K9 (human); compound 100.0 µM
  residual activity: 9%
ERBB4 (human); compound 10.0 µM
  residual activity: 43%
ERBB4 (human); compound 100.0 µM
  residual activity: 23%
MAP2K6 (human); compound 10.0 µM
  residual activity: 94%
MST4 (human); compound 10.0 µM
  residual activity: 96%
